In assay [1] the test system is human cancer cell lines. The experiment in a line: GDSC2 IC50 drug screening of cancer cell lines, divided by cancer gene TVA sub-groups. The following applies: except for two cell lines in "Strong Drivers" group. The format is cell-based. The source says: Bulk data of “IC50s Drug Screening” was obtained from Genomics of Drug Sensitivity in Cancer website. Bulk mutation data for cell lines was obtained from Cell Model Passports website.
The analysis was focused on pairs of drugs and genetic alterations that met the following criteria in GDSC's database: (i) drug response associated with a cancer gene variant (ii) at least 50 cell lines harboring the cancer gene alteration (iii) effect size above 0.7 (above 0.5 indicates a moderate effect size and above 1 indicates a large effect size) (iv) drug-gene association is statistically significant (false discovery rate (FDR) p-value<0.1) and (v) the drug effect on the mutated protein of associated pathways can explain the association.
For comparison of response to drugs between genes variants' TVA values, samples were binned according to their gene variant TVA score and according to appearance in the drivers' binomial catalogue. Non-drivers were defined as variants absent from the binomial catalogue with TVA≤1.5. This larger TVA value for variants not in the catalog enlarges the number of variants in the non-driver group. […]
Rare pathogenic variants are becoming important in the inter-individual variability in drug response. […] Genomic features and drug response associations were analyzed from GDCS's analysis of variance model that met certain criteria (see Materials and Methods). […]

The subject of assay [2] is human cancer cell lines. Conditions: GDSC2; BRAF variants, "Very Strong Drivers" group (includes V600E class I variant) versus all other groups; cited from earlier work.

Take `CC(C)(C)c1nc(-c2cccc(NS(=O)(=O)c3c(F)cccc3F)c2F)c(-c2ccnc(N)n2)s1` [Dabrafenib]: in the assay on human cancer cell lines [1], the “association of TVA's sub-groups of BRAF variants with drug response” value is recorded as “associated with drug response”.
`CCCS(=O)(=O)Nc1ccc(F)c(C(=O)c2c[nH]c3ncc(Cl)cc23)c1F` [PLX4720]: in the assay with human cancer cell lines [2], the “IC50 of cancer cell lines” value was “distinct low IC50”.

The record behind these values is patent US20250316381A1, “Assessment of Relative Quantitative Effect of Somatic Point Mutations at the Individual Tumor Level for Prioritization” (Hadasit Medical Research Services and Development Ltd., priority 2022, published 2025).
